Measured values taken from ChEMBL document CHEMBL5729175, “Pharmaceutical composition for preventing or treating acute myeloid leukemia or metastatic breast cancer” (2022).
pIC50: −log10 of the molar value.

Target: T1, Receptor-type tyrosine-protein kinase FLT3 (Homo sapiens, UniProt P36888)
T1 sequence (P36888 whole entry): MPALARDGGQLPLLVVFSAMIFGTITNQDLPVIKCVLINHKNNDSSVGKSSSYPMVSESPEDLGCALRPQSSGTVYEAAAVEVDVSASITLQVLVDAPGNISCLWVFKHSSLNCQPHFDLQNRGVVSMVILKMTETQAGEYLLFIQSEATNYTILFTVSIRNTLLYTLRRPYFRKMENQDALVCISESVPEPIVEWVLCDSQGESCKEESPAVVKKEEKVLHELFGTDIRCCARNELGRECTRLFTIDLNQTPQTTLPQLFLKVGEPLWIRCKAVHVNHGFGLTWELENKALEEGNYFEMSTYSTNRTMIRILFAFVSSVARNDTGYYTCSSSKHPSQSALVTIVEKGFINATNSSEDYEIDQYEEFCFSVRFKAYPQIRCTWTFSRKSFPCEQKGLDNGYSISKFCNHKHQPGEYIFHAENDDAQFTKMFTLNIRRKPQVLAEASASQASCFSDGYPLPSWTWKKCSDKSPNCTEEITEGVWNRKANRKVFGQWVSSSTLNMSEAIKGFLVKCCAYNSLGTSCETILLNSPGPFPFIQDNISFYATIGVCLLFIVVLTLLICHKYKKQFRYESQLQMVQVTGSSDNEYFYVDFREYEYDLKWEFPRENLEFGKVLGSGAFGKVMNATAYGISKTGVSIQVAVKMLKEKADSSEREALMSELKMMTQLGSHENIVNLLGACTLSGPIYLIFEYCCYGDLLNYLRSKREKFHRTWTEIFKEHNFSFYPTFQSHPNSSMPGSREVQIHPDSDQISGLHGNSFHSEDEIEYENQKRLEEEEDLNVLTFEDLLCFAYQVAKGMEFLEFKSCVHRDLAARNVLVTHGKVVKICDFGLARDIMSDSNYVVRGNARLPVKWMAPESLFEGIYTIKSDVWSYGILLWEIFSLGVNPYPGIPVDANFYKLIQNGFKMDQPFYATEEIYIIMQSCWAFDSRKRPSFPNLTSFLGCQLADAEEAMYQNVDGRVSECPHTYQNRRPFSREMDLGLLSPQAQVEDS
Experiment: In Vitro Kinase Assay: The inhibition of the FLT3 kinase activity was measured with homogeneous, time-resolved fluorescence (HTRF) assays. Recombinant proteins containing the FLT3 kinase domain were purchased from Invitrogen (Carlsbad, Calif., USA). Optimal enzyme, ATP, and substrate concentrations were established with the HTRF KinEASE kit (Cisbio, France) according to the manufacturer's instructions. The FLT3 enzymes were mixed with serially diluted compounds and peptide substrates in a kinase reaction buffer (50 mM HEPES (pH 7.0), 500 μM ATP, 0.1 mM sodium orthovanadate, 5 mM MgCl2, 1 mM DTT, 0.01% bovine serum albumin (BSA), and 0.02% NaN3). Ten microliters of the total volume of the kinase reaction were added to the wells of a 96-well assay plate. The kinase reactions were incubated for 30 min at 25° C. For the detection of the phospho-substrate, the Eu3b-Cryptate-conjugated mouse monoclonal antibody (PT66) and the streptavidin-XL665 (SA-XL) were added, and the reactions were then incubated for 1 hour at 25° C. The signal was measured on an Victor X5 multi-label reader (PerkinElmer, Waltham, Mass., USA).

Row | Compound | pIC50
1 | O=C1Nc2ccc(F)cc2/C1=C1/Nc2ccccc2/C1=N\OCCN1CCNCC1 | 9.05
2 | CN1CCN(CCO/N=C2/C(=C3/C(=O)Nc4ccccc43)Nc3ccccc32)CC1 | 8.13
3 | O=C1Nc2ccccc2/C1=C1/Nc2ccccc2/C1=N\OCCN1CCCC1 | 7.28
4 | O=C1Nc2ccccc2/C1=C1/Nc2ccccc2/C1=N\OCCN1CCCCC1 | 6.60
5 | O=C1Nc2ccc(I)cc2/C1=C1/Nc2ccccc2/C1=N\OCCN1CCNCC1 | 8.74
6 | CN1CCN(CCO/N=C2/C(=C3/C(=O)Nc4ccc(Cl)cc43)Nc3ccccc32)CC1 | 8.62
7 | COC(=O)c1ccc2c(c1)/C(=C1/Nc3ccccc3/C1=N\OCCN1CCOCC1)C(=O)N2 | 6.60
8 | CN1CCN(CCO/N=C2/C(=C3/C(=O)Nc4ccc(I)cc43)Nc3ccccc32)CC1 | 8.24
9 | O=C1Nc2ccc(Cl)cc2/C1=C1/Nc2ccccc2/C1=N\OCCN1CCNCC1 | 8.89
10 | O=C1Nc2ccc(Br)cc2/C1=C1/Nc2ccccc2/C1=N\OCCN1CCNCC1 | 9.00

Further lines, results first:

Row | pIC50 | Compound
11 | 8.49 | CN1CCN(CCO/N=C2/C(=C3/C(=O)Nc4ccc(F)cc43)Nc3ccccc32)CC1
12 | 7.45 | O=C1Nc2ccc([N+](=O)[O-])cc2/C1=C1/Nc2ccc(F)cc2/C1=N\OCCN1CCNCC1
13 | 7.45 | CN1CCN(CCO/N=C2/C(=C3/C(=O)Nc4ccc([N+](=O)[O-])cc43)Nc3ccc(F)cc32)CC1
14 | 7.39 | CN1CCN(CCO/N=C2/C(=C3/C(=O)Nc4ccc(F)cc43)Nc3ccc(F)cc32)CC1
15 | 7.58 | O=C1Nc2ccc(F)cc2/C1=C1/Nc2ccc(F)cc2/C1=N\OCCN1CCNCC1
16 | 7.09 | NC1CCN(CCO/N=C2/C(=C3/C(=O)Nc4ccc(F)cc43)Nc3ccc(F)cc32)CC1
17 | 6.95 | O=C1Nc2ccc([N+](=O)[O-])cc2/C1=C1/Nc2ccc(F)cc2/C1=N\OCCN1CCCC1
18 | 6.34 | O=C1Nc2ccc([N+](=O)[O-])cc2/C1=C1/Nc2ccc(F)cc2/C1=N\OCCN1CCCCC1
